Data: patent publication US20080108600A1, “Polycyclic Pyridines as Potassium Ion Channel Modulators” (Icagen, Inc., priority 2004, published 2008)
“And” between values parts separate entries of the source, which are not always exact repeats. Equal values may be shown once. Where a name gives a salt, the structure may show the parent alone.

molecular target: hSK2 (Homo sapiens, UniProt Q9H2S1); test: 86Rb+ efflux assay for compound activity towards hSK channels; assay type: cell-based; settings: 86Rb+ efflux stimulated with calcium ionophore; drug 0.01 to 30 μM; read-out: hSK2 Inhibitory Activity
Description: 24.1 Assay for Compound Activity Towards hSK Channels
Cells expressing small conductance, calcium activated potassium channels, such as SK-like channels were loaded with ^86Rb^+ by culture in media containing ^86RbCl. Following loading, the culture media was removed and the cells were washed in EBSS to remove residual traces of ^86Rb^+. Cells were preincubated with the drug (0.01 to 30 μM in EBSS) and then ^86Rb^+ efflux was stimulated by exposing cells to EBSS solution supplemented with a calcium ionophore, such as ionomycin, in the continued presence of the drug. After a suitable efflux period, the EBSS/ionophore solution was removed from the cells and the ^86Rb^+ content was determined by Cherenkov counting (Wallac Trilux). Cells were then lysed with a SDS solution and the ^86Rb^+ content of the lysate was determined. Percent ^86Rb^+ efflux was calculated according to the following equation:
(^86Rb^+ content in EBSS/(86Rb^+ content in EBSS+^86Rb^+ content of the lysate))×100

| Compound | IC50 |
| --- | --- |
| COc1ccc(-c2ncc(Cl)s2)nc1Nc1ccc(N2CCCC2=O)cn1 [1-{6-[6-(5-Chloro-thiazol-2-yl)-3-methoxy-pyridin-2-ylamino]-pyridin-3-yl}-pyrrolidin-2-one] | < 0.1 µM |
| CCOC(=O)CCc1ccc(Nc2cccc(-c3nccs3)n2)nc1 [3-[6-(6-Thiazol-2-yl-pyridin-2-ylamino)-pyridin-3-yl]-propionic acid ethyl ester] | < 0.1 µM |
| c1ccc(CNCc2ccc(Nc3cccc(-c4nccs4)n3)nc2)cc1 [5-[(Benzylamino)methyl]-N-[6-(1,3-thiazol-2-yl)pyridin-2-yl]pyridin-2-amine dihydrochloride] | 0.1 to 0.5 µM |
| COC(=O)c1ccc(Nc2cccc(-n3cccn3)n2)nc1 [6-(6-Pyrazol-1-yl-pyridin-2-ylamino)-nicotinic acid methyl ester] | 0.1 to 0.5 µM |
| Cc1ccc(-c2cccc(-c3nc4ccc(Cl)cc4[nH]3)n2)nc1 [6′-(6-Chloro-1H-benzoimidazol-2-yl)-5-methyl-[2,2′]bipyridinyl] | 0.1 to 0.5 µM |
| O=C1CCCCN1c1ccc(Nc2cccc(-n3cccn3)n2)nc1 [6′-(6-Pyrazol-1-yl-pyridin-2-ylamino)-3,4,5,6-tetrahydro-[1,3′]bipyridinyl-2-one] | < 0.1 µM |
| CCc1cnc(-c2cccc(Nc3ccc(N4CCCCC4=O)cn3)n2)s1 [6′-[6-(5-Ethyl-thiazol-2-yl)-pyridin-2-ylamino]-3,4,5,6-tetrahydro-[1,3′]bipyridinyl-2-one] | 0.1 to 0.5 µM |
| COc1ccc(-c2cnccn2)nc1Nc1ccc(N2CCCCC2)cn1 [(3-Methoxy-6-pyrazin-2-yl-pyridin-2-yl)-(3,4,5,6-tetrahydro-2H-[1,3′]bipyridinyl-6′-yl)-amine] | < 0.1 µM |
| COc1ccc(-c2cnccn2)nc1Nc1ccc(N2CCN(C)CC2)cn1 [(3-Methoxy-6-pyrazin-2-yl-pyridin-2-yl)-[5-(4-methyl-piperazin-1-yl)-pyridin-2-yl]-amine] | < 0.1 µM |
| COc1ccc(-c2nccs2)nc1Nc1ccc(-c2ccccc2)cn1 [(3-Methoxy-6-thiazol-2-yl-pyridin-2-yl)-(5-phenyl-pyridin-2-yl)-amine] | 0.1 to 0.5 µM |
| COc1ccc(-c2nccs2)nc1Nc1ccc(N2CCNC(C)C2)cn1 (stereo not shown) [(3-Methoxy-6-thiazol-2-yl-pyridin-2-yl)-[5-(3-methyl-piperazin-1-yl)-pyridin-2-yl]-amine] | 0.1 to 0.5 µM |
| COc1ccc(-c2nccs2)nc1Nc1ccc(N2CCCN(C)CC2)cn1 [(3-Methoxy-6-thiazol-2-yl-pyridin-2-yl)-[5-(4-methyl-[1,4]diazepan-1-yl)-pyridin-2-yl]-amine] | 0.1 to 0.5 µM |
| COc1ccc(-c2nccs2)nc1Nc1ccccn1 [(3-Methoxy-6-thiazol-2-yl-pyridin-2-yl)-pyridin-2-yl-amine] | < 0.1 µM |
| Brc1ccc(Nc2cccc(-n3cccn3)n2)nc1 [(5-Bromo-pyridin-2-yl)-(6-pyrazol-1-yl-pyridin-2-yl)-amine] | < 0.1 µM |
| Brc1ccc(Nc2cccc(-c3nccs3)n2)nc1 [(5-Bromo-pyridin-2-yl)-(6-thiazol-2-yl-pyridin-2-yl)-amine] | < 0.1 µM |
| c1cc(Nc2nnc(C3CC3)s2)nc(-c2nccs2)c1 [(5-Cyclopropyl-[1,3,4]thiadiazol-2-yl)-(6-thiazol-2-yl-pyridin-2-yl)-amine] | 0.1 to 0.5 µM |
| CCc1ccc(Nc2cccc(-c3nccs3)n2)nc1 [(5-Ethyl-pyridin-2-yl)-(6-thiazol-2-yl-pyridin-2-yl)-amine] | < 0.1 µM |
| Cc1cnn(-c2cccc(Nc3ccc(F)cn3)n2)c1 [(5-Fluoro-pyridin-2-yl)-[6-(4-methyl-pyrazol-1-yl)-pyridin-2-yl]-amine] | < 0.1 µM |
| c1cc(Nc2ccc(-c3ccco3)cn2)nc(-c2cnccn2)c1 [(5-Furan-2-yl-pyridin-2-yl)-(6-pyrazin-2-yl-pyridin-2-yl)-amine] | < 0.1 µM |
| c1cc(Nc2ccc(-c3ccco3)cn2)nc(-c2nccs2)c1 [(5-Furan-2-yl-pyridin-2-yl)-(6-thiazol-2-yl-pyridin-2-yl)-amine] | < 0.1 µM |
| C=C(C)c1ccc(Nc2cccc(-n3cc(C)cn3)n2)nc1 [(5-Isopropenyl-pyridin-2-yl)-[6-(4-methyl-pyrazol-1-yl)-pyridin-2-yl]-amine] | < 0.1 µM |
| COc1ccc(-c2cnccn2)nc1Nc1ccc(C(C)C)cn1 [(5-Isopropyl-pyridin-2-yl)-(3-methoxy-6-pyrazin-2-yl-pyridin-2-yl)-amine] | 0.1 to 0.5 µM |
| COc1ccc(-c2nccs2)nc1Nc1ccc(C(C)C)cn1 [(5-Isopropyl-pyridin-2-yl)-(3-methoxy-6-thiazol-2-yl-pyridin-2-yl)-amine] | < 0.1 µM and 0.1 to 0.5 µM |

| Compound | IC50 |
| --- | --- |
| COc1ccc(-c2ccccn2)nc1Nc1ccc(C(C)C)cn1 [(5-Isopropyl-pyridin-2-yl)-(5-methoxy-[2,2′]bipyridinyl-6-yl)-amine] | < 0.1 µM |
| Cc1cnn(-c2cccc(Nc3ccc(C(C)C)cn3)n2)c1 [(5-Isopropyl-pyridin-2-yl)-[6-(4-methyl-pyrazol-1-yl)-pyridin-2-yl]-amine] | < 0.1 µM |
| COc1ccc(-c2ccccn2)nc1Nc1ccc(N2CCCCC2)cn1 [(5-Methoxy-[2,2′]bipyridinyl-6-yl)-(3,4,5,6-tetrahydro-2H-[1,3′]bipyridinyl-6′-yl)-amine] | < 0.1 µM |
| COc1ccc(-c2ccccn2)nc1Nc1ccc(N2CCN(C)CC2)cn1 [(5-Methoxy-[2,2′]bipyridinyl-6-yl)-[5-(4-methyl-piperazin-1-yl)-pyridin-2-yl]-amine] | < 0.1 µM |
| COc1ccc(Nc2cccc(-n3cc(C)cn3)n2)nc1 [(5-Methoxy-pyridin-2-yl)-[6-(4-methyl-pyrazol-1-yl)-pyridin-2-yl]-amine] | < 0.1 µM |
| c1ccc(-c2cc(Nc3cccc(-c4nccs4)n3)[nH]n2)cc1 [(5-Phenyl-2H-pyrazol-3-yl)-(6-thiazol-2-yl-pyridin-2-yl)-amine] | < 0.1 µM |
| CC(C)(C)c1ccc(Nc2cccc(-c3nccs3)n2)nc1 [(5-tert-Butyl-pyridin-2-yl)-(6-thiazol-2-yl-pyridin-2-yl)-amine] | 0.1 to 0.5 µM |
| Fc1cccc(Nc2cccc(-c3nccs3)n2)n1 [(6-Fluoro-pyridin-2-yl)-(6-thiazol-2-yl-pyridin-2-yl)-amine] | 0.5 to 1 µM |
| c1cc(Nc2cc3ccccc3cn2)nc(-c2nccs2)c1 [Isoquinolin-3-yl-(6-thiazol-2-yl-pyridin-2-yl)-amine] | < 0.1 µM |
| COc1ccc(-c2nccs2)nc1Nc1ccc(N(C)C2CCN(C)C2)cn1 (stereo not shown) [N^2-(3-Methoxy-6-thiazol-2-yl-pyridin-2-yl)-N^5-methyl-N^5-(1-methyl-pyrrolidin-3-yl)-pyridine-2,5-diamine] | 0.1 to 0.5 µM |
| COCCN(C)c1ccc(Nc2nc(-c3ncc(Cl)s3)ccc2OC)nc1 [N^2-[6-(5-Chloro-thiazol-2-yl)-3-methoxy-pyridin-2-yl]-N^5-(2-methoxy-ethyl)-N^5-methyl-pyridine-2,5-diamine] | < 0.1 µM |
| COCCN(C)c1ccc(Nc2cccc(-c3ncc(Cl)s3)n2)nc1 [N^2-[6-(5-Chloro-thiazol-2-yl)-pyridin-2-yl]-N^5-(2-methoxy-ethyl)-N^5-methyl-pyridine-2,5-diamine] | < 0.1 µM |
| COc1ccc(-c2nccs2)nc1Nc1ccc(NC2CN3CCC2CC3)cn1 (stereo not shown) [N^5-(1-Aza-bicyclo[2.2.2]oct-3-yl)-N^2-(3-methoxy-6-thiazol-2-yl-pyridin-2-yl)-pyridine-2,5-diamine] | 0.1 to 0.5 µM |
| COc1ccc(-c2nccs2)nc1Nc1ccc(-c2ccccn2)cn1 [[2,3′]Bipyridinyl-6′-yl-(3-methoxy-6-thiazol-2-yl-pyridin-2-yl)-amine] | < 0.1 µM |
| c1cncc(-c2ccc(Nc3cccc(-c4cnccn4)n3)nc2)c1 [[3,3′]Bipyridinyl-6-yl-(6-pyrazin-2-yl-pyridin-2-yl)-amine] | < 0.1 µM |
| COc1ccccc1-c1ccc(Nc2cccc(-n3cc(C)cn3)n2)nc1 [[5-(2-Methoxy-phenyl)-pyridin-2-yl]-[6-(4-methyl-pyrazol-1-yl)-pyridin-2-yl]-amine] | < 0.1 µM |
| c1cc(Nc2ccc(CN3CCc4ccccc4C3)cn2)nc(-c2nccs2)c1 [[5-(3,4-Dihydro-1H-isoquinolin-2-ylmethyl)-pyridin-2-yl]-(6-thiazol-2-yl-pyridin-2-yl)-amine] | < 0.1 µM |
| CN1CCN(c2ccc(Nc3cccc(-n4cccn4)n3)nc2)CC1 [[5-(4-Methyl-piperazin-1-yl)-pyridin-2-yl]-(6-pyrazol-1-yl-pyridin-2-yl)-amine] | 0.5 to 1 µM |
| Cc1ccc(-c2ccc(Nc3cccc(-c4nccs4)n3)nc2)o1 [[5-(5-Methyl-furan-2-yl)-pyridin-2-yl]-(6-thiazol-2-yl-pyridin-2-yl)-amine] | < 0.1 µM |
| Cc1cnn(-c2cccc(Nc3ccc(N4CCC(C)CC4)cn3)n2)c1 [[6-(4-Methyl-pyrazol-1-yl)-pyridin-2-yl]-(4-methyl-3,4,5,6-tetrahydro-2H-[1,3′]bipyridinyl-6′-yl)-amine] | 0.1 to 0.5 µM |
| COc1ccc(-c2ncc(Cl)s2)nc1Nc1ccc(N2CCCCC2)cn1 [[6-(5-Chloro-thiazol-2-yl)-3-methoxy-pyridin-2-yl]-(3,4,5,6-tetrahydro-2H-[1,3′]bipyridinyl-6′-yl)-amine] | 0.1 to 0.5 µM |
| COc1ccc(-c2ncc(Cl)s2)nc1Nc1ccc(N2CCC(OC)CC2)cn1 [[6-(5-Chloro-thiazol-2-yl)-3-methoxy-pyridin-2-yl]-(4-methoxy-3,4,5,6-tetrahydro-2H-[1,3′]bipyridinyl-6′-yl)-amine] | < 0.1 µM |
| COc1ccc(-c2ncc(Cl)s2)nc1Nc1ccc(N2CCOCC2)cn1 [[6-(5-Chloro-thiazol-2-yl)-3-methoxy-pyridin-2-yl]-(5-morpholin-4-yl-pyridin-2-yl)-amine] | < 0.1 µM |
